For data set [1], the system named is DNA of MCF-7, MDA 468, KM12 and HCC 2998 cells. Description: DNA adduct formation. It counts as cell-based, human. The following applies: MCF-7, MDA 468, KM 12 and HCC 2998 cells; 10 μM, 24 hours.
Data set [2] has as its system NCI in vitro 60 human cancer cell panel. Description: NCI in vitro 60 human cancer cell panel, sulforhodamine B assay. It counts as cell-based. To be noted: NCI mean GI50 graphs, FIGS. 1 and 8 to 12. On the procedure: Results from the more extensive NCI in vitro 60 human cancer cell panel^15 corroborated the results (above). The mean GI50 values across the range of compounds (above), including the two series of esters (11-21) are an unremarkable 10-100 μM (data not shown); however, these values disguise significant cell selectivity. […] Full NCI mean GI50 graphs for compounds (1,2,3,4,101,102) are included herein as FIGS. 1 and 8 to 12.
The results shown on FIG. 1 were generated by treating the cells with an active agent for 48 hours, in this case compound 1, before determination of viability by sulforhodamine B assay.
A general note: In SRB staining, fixed cells bind dye roughly in proportion to their protein.

Data set [3] concerns MCF-7, MDA 468, KM12 and HCC 2998. Description: MTT assay, panel of four cell lines, results in words. The format is cell-based, human. To be noted: compared to compound 1. On the procedure: (§1) A range of compounds were evaluated in MTT assays following 3 day exposure against a panel of two human breast cancer cell lines MCF-7 (ER+) and MDA 468 (ER−), and two colon cancer cell lines KM12 and HCC 2998. In general the breast cell lines were more sensitive to the agents and the MDA 468 line the most sensitive of the four (Table 2). The benchmark active compound was 5-fluoro-2-(3,4-dimethoxyphenyl)benzothiazole (1) with GI50 values<0.1 nM against the two breast cell lines. […] The most interesting series of compounds were those combining a 5-fluoro group with two oxygenated substituents in the 3′,4′-positions where minor, seemingly conservative, structural changes were associated with a dramatic variations in activity (when compared to 1). […] In summary, this in vitro screen led to the identification of the fluorinated 2-(3,4-dimethoxyphenyl)benzothiazole structure as a novel antitumor pharmacophore with the 5-fluoro analogue (1) astride a pinnacle of activity.
Background: Formazan colour is commonly taken as a measure of viable cells.

The test system of the next data set is KM 12. Description: MTT assay, 3 day exposure, KM12. The format is cell-based, human. The following applies: KM 12 (colon), read-out: GI50 values in cell lines, KM 12. On the procedure: as §1
(§2) The assays/methods used to generate the results referred to herein are well known to those skilled in the art and therefore it has not been necessary to describe them in detail.

The test system of another data set is MCF-7. Description: MTT assay, 3 day exposure, MCF-7. The format is cell-based. The following applies: Homo sapiens, read-out: GI50 values in cell lines, MCF-7. On the procedure:
as §1, §2

In a further data set the test system is MDA 468. Description: MTT assay, 3 day exposure, MDA 468. It counts as cell-based. The following applies: Homo sapiens, MDA 468 (breast), read-out: GI50 values in cell lines, MDA 468. The protocol:
as §1, §2

“Also recorded” adds a separate entry of the source. Read-outs that look alike come from different tables or passages of the source.

In turn, `COc1ccc(-c2nc3c(F)cccc3s2)cc1OC` [Compound 2, 4-Fluoro-2-(3,4-dimethoxyphenyl)benzothiazole] gave a melting point of 129 °C. The DNA adducts formed result in data set [1] is reported as “One major adduct species”. For the same compound, the “sensitivity of cancer cell panels / antitumour activity in vitro” value in data set [2] was “reduced activity against cancer cells when compared to compound 1; also recorded: substantial potent and selective antitumour activity; also recorded: potent (but attenuated compared to 1), activity in the colon and NSCL sub-panels”. Besides, the “growth inhibitory potency in words” value in data set [3] is recorded as “retained nanomolar growth inhibitory potency against one or more of the cell lines”. Moreover, in the data set with KM 12 (Homo sapiens, KM12, 72 h, MTT, 3 day exposure, triplicate), the GI50 is 850 nM. Besides, in the data set on KM 12 (value in nM), the GI50 stood at 78.4 nM. The GI50 with MCF-7 (MCF7, 72 h, MCF-7 (breast), MTT, 3 day exposure, triplicate) came to 5 nM. Besides, in the data set with MCF-7 (MCF7, MCF-7 (breast), value in nM), the GI50 is 2.9 nM. Besides, the GI50 with MDA 468 (72 h, MTT, 3 day exposure, triplicate) was 5 nM. Further, the GI50 in the data set with MDA 468 (value in nM) worked out at 3.4 nM.

The term GI50 denotes the concentration that inhibits growth by half. As usually defined, the melting point is the temperature, or range, at which the solid turns liquid.

These data come from patent publication US7384966B2, “2-arylbenzothiazole derivatives” (Pharminxo Limited, priority 2004, dated 2008).
